Data taken from patent US20070149570A1, “Piperidine derivative and use thereof” (priority 2005, published 2007).
pIC50: −log10 of the molar value. Counter-ions that a name gives are not always drawn.

Key:
[1] = target: T1, substance P receptors (Homo sapiens, UniProt P25103); experiment: Radioligand receptor binding inhibitory activity using receptor from human lymphoblast cells (IM-9), 125I-BHSP; conditions: radioligand 125I-BHSP, 25° C., 30 minutes, read-out: IC50 (concentration necessary to cause 50% inhibition)
T1 construct: The receptor was prepared from human lymphoblast cells (IM-9); endogenous in cells; host or cells: IM-9 human lymphoblast cells (membrane preparation)
T1 sequence (P25103 whole entry): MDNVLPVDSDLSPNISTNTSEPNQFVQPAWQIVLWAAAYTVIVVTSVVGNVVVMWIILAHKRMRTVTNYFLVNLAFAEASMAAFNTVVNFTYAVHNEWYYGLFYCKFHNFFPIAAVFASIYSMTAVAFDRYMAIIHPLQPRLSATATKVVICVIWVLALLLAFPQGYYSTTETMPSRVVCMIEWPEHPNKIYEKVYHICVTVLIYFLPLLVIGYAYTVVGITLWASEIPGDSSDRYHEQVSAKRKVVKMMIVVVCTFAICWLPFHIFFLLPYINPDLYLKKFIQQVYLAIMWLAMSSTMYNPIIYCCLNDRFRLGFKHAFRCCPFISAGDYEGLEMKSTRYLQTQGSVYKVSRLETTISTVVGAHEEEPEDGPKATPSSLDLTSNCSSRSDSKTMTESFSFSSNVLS
Method: Radioligand receptor binding inhibitory activity (Binding inhibitory activity using receptor from human lymphoblast cells (IM-9))
The method of M. A. Cascieri et al., [Molecular Pharmacology, vol. 42, p. […] The receptor was prepared from human lymphoblast cells (IM-9). IM-9 cells (2×10^5 cells/mL) were incubated for 3 days (one liter), which was then subjected to centrifugation for 5 minutes at 500×G to obtain cell pellets. […] The residue was washed twice with 30 mL of the above-mentioned buffer, which was then preserved frozen (−80° C.) as a specimen of the receptor.
The specimen was suspended in a reaction buffer (50 mM Tri-HCl buffer (pH 7.4), 0.02% bovine serum albumin, 1 mM phenylmethylsulfonyl fluoride, 2 μg/mL chymostatin, 40 μg/mL bacitracin and 3 mM manganese chloride) to have protein in the concentration of 0.5 mg/mL of protein and 100 μL portion of the suspension was used in the reaction. […] The amount of nonspecific binding was determined by adding substance P at a final concentration of 2×10^−6 M.
After the reaction, using a cell harvester (290 PHD, Cambridge Technology, Inc., U.S.A.), filtration was carried out through a glass filter (GF/B, Whatman, U.S.A.), which was immersed in 0.1% polyethyleneimine for 24 hours and dried. After washing three times with 250 μL of 50 mM Tris-HCl buffer (pH 7.4) containing 0.02% bovine serum albumin, the radioactivity remaining on the filter was determined with a gamma counter.

| melting point | pIC50 [1] | Compound |
| --- | --- | --- |
| 153 °C |  | Cl.O=C1CC(C(=O)N2CC[C@H](NCc3cc(-c4ccc(Cl)cc4)ccc3OC(F)(F)F)[C@H](c3ccccc3)C2)CC(=O)N1 |
| 198 to 200 °C |  | CC1(C)OC(=O)N(CC(=O)N2CC[C@H](NCc3cc(-c4ccc(C#N)cc4F)ccc3OC(F)(F)F)[C@H](c3ccccc3)C2)C1=O (as salt: hydrochloride) (hydrate or solvate) [Example 97, 3′-[({(3R,4S)-1-[(5,5-dimethyl-2,4-dioxo-1,3-oxazolidin-3-yl)acetyl]-3-phenylpiperidin-4-yl}amino)methyl]-2-fluoro-4′-(trifluoromethoxy)biphenyl-4-carbonitrile] |
| 197 to 199 °C |  | CC1(C)OC(=O)N(CC(=O)N2CC[C@H](NCc3cc(-c4ccc(C#N)cc4)ccc3OC(F)(F)F)[C@H](c3ccccc3)C2)C1=O (as salt: hydrochloride) (hydrate or solvate) [Example 137, 3′-[({(3R,4S)-1-[(5,5-dimethyl-2,4-dioxo-1,3-oxazolidin-3-yl)acetyl]-3-phenylpiperidin-4-yl}amino)methyl]-4′-(trifluoromethoxy)biphenyl-4-carbonitrile] |
| 162 to 164 °C |  | O=C1CC(C(=O)N2CC[C@H](NCc3cc(-c4ccc(Cl)cc4F)ccc3OC(F)(F)F)[C@H](c3ccccc3)C2)CC(=O)N1 (as salt: hydrochloride) [Example 132, 4-{[(3R,4S)-4-({[4′-chloro-2′-fluoro-4-(trifluoromethoxy)biphenyl-3-yl]methyl}amino)-3-phenylpiperidin-1-yl]carbonyl}piperidine-2,6-dione] |
| 132 to 134 °C | 10.82 | N#Cc1ccc(-c2ccc(OC(F)(F)F)c(CN[C@H]3CCN(C(=O)CO)C[C@H]3c3ccccc3)c2)c(F)c1 [Example 100, 2-fluoro-3′-({[(3R,4S)-1-glycoloyl-3-phenylpiperidin-4-yl]amino}methyl)-4′-(trifluoromethoxy)biphenyl-4-carbonitrile] |
| 142 to 144 °C | 10.72 | N#Cc1ccc(-c2ccc(OC(F)(F)F)c(CN[C@H]3CCN(C(=O)C(N)=O)C[C@H]3c3ccccc3)c2)c(F)c1 [Example 104, 2-[(3R,4S)-4-({[4′-cyano-2′-fluoro-4-(trifluoromethoxy)biphenyl-3-yl]methyl}amino)-3-phenylpiperidin-1-yl]-2-oxoacetamide] |
